Values of other authors, collected in PubChem BioAssay AID1259409 (Chemical Carcinogenesis Research Information System (CCRIS), 2018).

System: rodent chemically induced tumor inhibition, incidence and multiplicity
Assay: CCRIS tumor inhibitor studies

## CCCCC(O)CCC(=O)c1ccccc1 (configuration not stated)
Carcinogen: 4-(METHYLNITROSAMINO)-1-(3-PYRIDYL)-1-BUTANONE, 64091-91-4, Dose [Inhibitor]: 0, 25 UMOL IN 0.1 ML CORN OIL ONCE 2 HR PRIOR TO CARCINOGEN DOSE (STUDY DURATION: 16 WK), Route [Inhibitor]: GAVAGE, Species: MOUSE, Strain/Sex: STRAIN-A/FEMALE, Target Tissue: Type of Lesion: LUNG: TUMOR, Dose [Carcinogen]: 10 UMOL IN 0.1 ML SALINE ONCE, Promoter: NONE USED
  tumour outcome (control, treated, inhibition, significance): 100%, 100%, 0%, not significant

## II
Carcinogen: N-METHYL-N-NITROSOUREA [684-93-5], Dose [Inhibitor]: 0.05% I2 IN DRINKING WATER, 2 WKS BEFORE CARCINOGEN AND FOR 26 WKS AFTER, Route [Inhibitor]: DRINKING WATER, Species: RAT, Strain/Sex: SPRAGUE-DAWLEY/FEMALE, Target Tissue: Type of Lesion: MAMMARY GLAND: CARCINOMA, Dose [Carcinogen]: 50 MG/KG BW ONCE AT 7 WKS OF AGE (IN SALINE SOLUTION)
  outcome: 8/11 (73%) vs 3/10 (30%) at 16 wks, p<0.05
Carcinogen: N-Methyl-N- nitrosourea (684-93-5), Dose [Inhibitor]: 0, 0.05% in drinking water for a total of 18 wks, Route [Inhibitor]: Oral, Species: Rat, Strain/Sex: Sprague-Dawley, female, Target Tissue: Type of Lesion: Mammary gland, Dose [Carcinogen]: 50 mg, study duration 16 wks after carcinogen
  outcome: 100%, 62.5%, p<0.05

## Nc1c(Br)cc(Br)cc1CNC1CCC(O)CC1 (configuration not stated)
Carcinogen: N-METHYL-N'-NITRO-N-NITROSOGUANIDINE [70-25-7], Dose [Inhibitor]: 0, 25 MG/KG BW 1X/2 D FOR 26 WK BEGINNING 1 WK POST LAST CARCINOGEN DOSE (STUDY DURATION: 52 WK), Route [Inhibitor]: SUBCUTANEOUS, Species: RAT, Strain/Sex: WISTAR/MALE, Target Tissue: Type of Lesion: STOMACH: TUMOR, Dose [Carcinogen]: 25 UG/ML IN DRINKING WATER FOR 25 WK (STUDY DURATION: 52 WK), Promoter: AMMONIUM ACETATE [631-61-8], SODIUM HYPOCLORITE [7681-52-9]
  tumour outcome (control, treated, inhibition, significance): 17/20 (85%), 6/19 (32%), 62%, p<0.01

## N[C@@H](CSSC[C@H](N)C(=O)O)C(=O)O
Carcinogen: 4-DIMETHYLAMINOAZOBENZENE, 60-11-7, Dose [Inhibitor]: 0.5% OF DIET DAILY STARTING SIMULTANEOUSLY WITH CARCINOGEN TREATMENT AND CONTINUING THROUGH THE END OF THE STUDY (STUDY, Route [Inhibitor]: ORAL, Species: RAT, Strain/Sex: OSBORNE-MENDEL/MALE, Target Tissue: Type of Lesion: LIVER: HEPATOMA, ADENOCARCINOMA, Dose [Carcinogen]: 0.06% OF DIET DAILY THROUGH THE END OF THE STUDY, Promoter: NONE USED
  tumour outcome (control, treated, inhibition, significance): 48/80 (60%), 84/87 (97%), -62%, not calculated

## CC(=C/C=C/C(C)=C/C=C/C=C(C)/C=C/C=C(\C)C=C=C1C(C)(C)C[C@H](O)C[C@@]1(C)O)/C=C/[C@@]12O[C@]1(C)C[C@@H](O)CC2(C)C
Carcinogen: 7,12-DIMETHYLBENZ[A]ANTHRACENE, 57-97-6, Dose [Inhibitor]: 0, 0.2 UG IN 0.2 ML ACETONE APPLIED TO BUCCAL POUCH 2/WK FOR 2 WK 1 HR PRIOR TO EACH PROMOTER DOSE (STUDY DURATION: 34 W, Route [Inhibitor]: MUCOUS MEMBRANE, Species: HAMSTER, Strain/Sex: SYRIAN/MALE,FEMALE, Target Tissue: Type of Lesion: BUCCAL POUCH: TUMOR, Dose [Carcinogen]: 200 NMOL IN 0.2 ML ACETONE 3/WK FOR 2 WK, Promoter: 12-O-TETRADECANOYLPHORBOL-13-ACETATE, 16561-29-8
  tumour outcome (control, treated, inhibition, significance): 3/6 (50%), 0/6 (0%), 100%, not calculated
Carcinogen: 7,12-DIMETHYLBENZ[A]ANTHRACENE, 57-97-6, Dose [Inhibitor]: 0, 0.2 UG IN 0.2 ML ACETONE APPLIED TO BUCCAL POUCH 3/WK FOR 2 WK 1 HR PRIOR TO EACH CARCINOGEN DOSE (STUDY DURATION: 34, Route [Inhibitor]: MUCOUS MEMBRANE, Species: HAMSTER, Strain/Sex: SYRIAN/MALE,FEMALE, Target Tissue: Type of Lesion: BUCCAL POUCH: TUMOR, Dose [Carcinogen]: 200 NMOL IN 0.2 ML ACETONE 3/WK FOR 2 WK, Promoter: 12-O-TETRADECANOYLPHORBOL-13-ACETATE, 16561-29-8
  tumour outcome (control, treated, inhibition, significance): 3/6 (50%), 0/6 (0%), 100%, not calculated

## O=C(O)/C=C/C(=O)O
Carcinogen: 3'-METHYL-4-DIMETHYLAMINOAZOBENZENE, 55-80-1, Dose [Inhibitor]: 1% IN DIET AND 0.025% IN DRINKING WATER CONCOMITANTLY FOR 51 WK STARTING AT COMPLETION OF CARCINOGEN TREATMENT (STUDY DU, Route [Inhibitor]: ORAL, Species: RAT, Strain/Sex: DONRYU/MALE, Target Tissue: Type of Lesion: LIVER: CARCINOMA, Dose [Carcinogen]: 0.06% IN DIET FOR 50 D, Promoter: NONE USED
  tumour outcome (control, treated, inhibition, significance): 11/13 (85%), 2/15 (13%), 85%, p<0.0002
Carcinogen: 4-(METHYLNITROSAMINO)-1-(3-PYRIDYL)-1-BUTANONE [64091-50-5], Dose [Inhibitor]: 80 MMOL/KG IN DIET FOR 17 WK BEGINNING 1 WK PRIOR TO FIRST CARCINOGEN DOSE (STUDY DURATION: 17 WK), Route [Inhibitor]: ORAL, Species: MOUSE, Strain/Sex: A/J/FEMALE, Target Tissue: Type of Lesion: LUNG: ADENOMA, Dose [Carcinogen]: 10 UMOL ONCE 1 WK POST FIRST INHIBITOR DOSE (STUDY DURATION: 17 WK), Promoter: NONE
  tumour outcome (control, treated, inhibition, significance): 100%, 100%, 0%, not significant
Carcinogen: 4-(METHYLNITROSAMINO)-1-(3-PYRIDYL)-1-BUTANONE [64091-50-5], Dose [Inhibitor]: 80 MMOL/KG IN DIET FOR 53 WK BEGINNING 1 WK PRIOR TO FIRST CARCINOGEN DOSE (STUDY DURATION: 53 WK), Route [Inhibitor]: ORAL, Species: MOUSE, Strain/Sex: A/J/FEMALE, Target Tissue: Type of Lesion: LUNG: ADENOMA OR ADENOCARCINOMA, Dose [Carcinogen]: 10 UMOL ONCE 1 WK POST FIRST INHIBITOR DOSE (STUDY DURATION: 53 WK), Promoter: NONE
  tumour outcome (control, treated, inhibition, significance): 100%, 97%, 3%, not significant
Carcinogen: 4-(METHYLNITROSAMINO)-1-(3-PYRIDYL)-1-BUTANONE [64091-50-5], Dose [Inhibitor]: 160 MMOL/KG IN DIET FOR 17 WK BEGINNING 1 WK PRIOR TO FIRST CARCINOGEN DOSE (STUDY DURATION: 17 WK), Route [Inhibitor]: ORAL, Species: MOUSE, Strain/Sex: A/J/FEMALE, Target Tissue: Type of Lesion: LUNG: ADENOMA, Dose [Carcinogen]: 10 UMOL ONCE 1 WK POST FIRST INHIBITOR DOSE (STUDY DURATION: 17 WK), Promoter: NONE
  tumour outcome (control, treated, inhibition, significance): 100%, 100%, 0%, not significant
Carcinogen: 4-(METHYLNITROSAMINO)-1-(3-PYRIDYL)-1-BUTANONE [64091-50-5], Dose [Inhibitor]: 160 MMOL/KG IN DIET FOR 53 WK BEGINNING 1 WK PRIOR TO FIRST CARCINOGEN DOSE (STUDY DURATION: 53 WK), Route [Inhibitor]: ORAL, Species: MOUSE, Strain/Sex: A/J/FEMALE, Target Tissue: Type of Lesion: LUNG: ADENOMA OR ADENOCARCINOMA, Dose [Carcinogen]: 10 UMOL ONCE 1 WK POST FIRST INHIBITOR DOSE (STUDY DURATION: 53 WK), Promoter: NONE
  tumour outcome (control, treated, inhibition, significance): 100%, 97%, 3%, not significant
Carcinogen: POTASSIUM 1-METHYL-7-[2-(5-NITRO-2-FURYL)VINYL]-4-OXO-1,4-DIHYDRO-1,8- NAPHTHYRIDINE-3-CARBOXYLATE, 29676-95-7, Dose [Inhibitor]: 1% IN DIET FOR 39 WK STARTING AT COMPLETION OF CARCINOGEN TREATMENT (STUDY DURATION: 53 WK), Route [Inhibitor]: ORAL, Species: MOUSE, Strain/Sex: ICR/MALE, Target Tissue: Type of Lesion: FORESTOMACH: SQUAMOUS CELL CARCINOMA, Dose [Carcinogen]: 0.012% DIET FOR 14 WK, Promoter: NONE USED
  tumour outcome (control, treated, inhibition, significance): 7/30 (23%), 1/32 (3%), 87%, p<0.05
Carcinogen: POTASSIUM 1-METHYL-7-[2-(5-NITRO-2-FURYL)VINYL]-4-OXO-1,4-DIHYDRO-1,8- NAPHTHYRIDINE-3-CARBOXYLATE, 29676-95-7, Dose [Inhibitor]: 1% IN DIET FOR 39 WK STARTING AT COMPLETION OF CARCINOGEN TREATMENT (STUDY DURATION: 53 WK), Route [Inhibitor]: ORAL, Species: MOUSE, Strain/Sex: ICR/MALE, Target Tissue: Type of Lesion: FORESTOMACH: SQUAMOUS CELL PAPILLOMA, Dose [Carcinogen]: 0.012% IN DIET FOR 14 WK, Promoter: NONE USED
  tumour outcome (control, treated, inhibition, significance): 13/30 (43%), 0/32 (0%), 100%, not significant
Carcinogen: POTASSIUM 1-METHYL-7-[2-(5-NITRO-2-FURYL)VINYL]-4-OXO-1,4-DIHYDRO-1,8- NAPHTHYRIDINE-3-CARBOXYLATE, 29676-95-7, Dose [Inhibitor]: 1% IN DIET FOR 39 WK STARTING AT COMPLETION OF CARCINOGEN TREATMENT (STUDY DURATION: 53 WK), Route [Inhibitor]: ORAL, Species: MOUSE, Strain/Sex: ICR/MALE, Target Tissue: Type of Lesion: LUNG: ADENOCARCINOMA, Dose [Carcinogen]: 0.012% IN DIET FOR 14 WK, Promoter: NONE USED
  tumour outcome (control, treated, inhibition, significance): 2/30 (7%), 11/32 (34%), -386%, not significant
Carcinogen: POTASSIUM 1-METHYL-7-[2-(5-NITRO-2-FURYL)VINYL]-4-OXO-1,4-DIHYDRO-1,8- NAPHTHYRIDINE-3-CARBOXYLATE, 29676-95-7, Dose [Inhibitor]: 1% IN DIET FOR 39 WK STARTING AT COMPLETION OF CARCINOGEN TREATMENT (STUDY DURATION: 53 WK), Route [Inhibitor]: ORAL, Species: MOUSE, Strain/Sex: ICR/MALE, Target Tissue: Type of Lesion: LUNG: PAPILLOTUBULAR ADENOCARCINOMA, Dose [Carcinogen]: 0.012% IN DIET FOR 14 WK, Promoter: NONE USED
  tumour outcome (control, treated, inhibition, significance): 27/30 (90%), 0/32 (0%), 100%, p<0.01
Carcinogen: THIOACETAMIDE, 62-55-5, Dose [Inhibitor]: 1% IN DIET FOR 48 WK GIVEN POST CARCINOGEN (STUDY DURATION: 88 WK), Route [Inhibitor]: ORAL, Species: MOUSE, Strain/Sex: ICR/MALE, Target Tissue: Type of Lesion: LIVER: HEPATOCELLULAR CARCINOMA, Dose [Carcinogen]: 0.035% IN DIET FOR 40 WK, Promoter: NONE USED
  tumour outcome (control, treated, inhibition, significance): 11/24 (46%), 0/15 (0%), 100%, p<0.01
